Test results as given in patent publication US9732067B2, “Compounds and methods for activating the apoptotic arm of the unfolded protein response” (University of Kansas, priority 2012, dated 2017).
Read-outs that look alike come from different tables or passages of the source.

How the values were obtained:
[1] = system: PERK-eIF2α-CHOP (apoptotic) arm of the Unfolded Protein Response pathway; experiment: UPR-CHOP primary assay (CHO-CHOP luciferase reporter); format: cell-based
Method: The purpose of this assay was to detect activators of the PERK-eIF2α-CHOP (apoptotic) arm of the Unfolded Protein Response pathway.
Cells were passaged twice a week. […] Once the cells had reached confluency, old medium was aspirated and the flasks were washed with 20 mL DPBS per T225 flask. Cells were left in DPBS for about 30 seconds. Subsequently, 6.5 mL 0.05% trypsin solution was added into the flask and the flask was rocked gently so that the solution covered the surface. The cells were allowed to detach by incubating at room temperature for about 4 minutes. The flask was washed with […] fresh growth media and the cell suspension was collected in a 50 mL sterile conical tube. The collected cells were centrifuged at 900 rpm for 5 minutes and re-suspended in 1 mL fresh growth media. An additional 19 mL of growth media was added and the tube was mixed gently. The cell suspension was filtered with a cell strainer and the cells were counted.
As above, cells were grown to confluency, washed, and detached with 5 mL trypsin solution for 4 minutes at room temperature. The flask was washed with 25 mL fresh growth media and the cell suspension was collected in a 50 mL sterile conical tube. The cells were centrifuged at 500 rpm for 10 minutes and re-suspended carefully in 1 mL fresh assay medium. An additional 19 mL of assay media was added the cells were mixed gently. The cell suspension was filtered with a cell strainer and the number of cells was counted. Cell density was adjusted to 1.0×10^5 cells/mL in medium.
On day 1, cell suspensions were prepared and 500 cells in 5 μL of assay media were plated in the wells of columns 1-48 of a 1536-well assay plate. The plates were centrifuged at 500 rpm for 1 minute and subsequently incubated at 37° C., 100% relative humidity, 5% CO2 for 16-18 hours.
[…] […] The plates were centrifuged at 1000 rpm for 1 minute and subsequently incubated at 37° C., 100% relative humidity, 5% CO2 for 6 hours.
Following the 6-hour incubation the plate was incubated for 10 minutes at room temperature and 3 μL of STEADY-GLO was added to each well. The plates were centrifuged at 2000 rpm for 2 minutes and subsequently incubated at room temperature for 10 minutes. Luminescence was measured with a luminometer.
The MLPCN library of approximately 330,000 compounds was tested in the UPR-CHOP primary screen utilizing a luciferase-based reporter expressed in a CHO cell line to identify activators of the CHOP apoptotic pathway. […]

[2] = system: IRE1/XBP1 (adaptive) UPR sub-pathway; experiment: UPR XBP1 assay (CHO-XBP1-luciferase reporter cell line); format: cell-based
Method: A high-throughput screen of the NIH Molecular Libraries Small Molecule Repository (MLSMR) of >350,000 compounds was carried out using complementary cell-based reporter assays using stably transfected CHO-K1 cells that specifically identify activators of the PERK/eIF2α/CHOP (apoptotic), or the IRE1/XBP1 (adaptive) UPR sub-pathways.
The liquid samples were first confirmed at a single-point concentration of 10 μM in the […]. Of the liquid samples, 674 compounds were confirmed to have at least 32% activity at a 10 μM assay concentration. The confirmed compounds were further tested in dose response in the UPR-CHOP primary assay to obtain EC50 values. In addition, confirmed compounds were also dosed out in the CHO-XBP1-luciferase reporter cell line to identify compounds that were selective for the CHOP apoptotic over the adaptive XBP1 pathway.
The high throughput screening effort and subsequent validation produced two chemotypes, which were further explored by SAR analysis for potency, selectivity, the absence of reactive functionality, synthetic accessibility, physiochemical properties, and hit rate in unrelated PUBCHEM assays. SAR testing of re-constituted powders encompassed dose response testing of compounds in two assays: UPR-CHOP and UPR-XBP1 assays.

MEF with wild-type CHOP = experiment: Proliferation / cytotoxicity (ATPLite) in MEF with wild-type CHOP; format: cell-based, mouse; conditions: Mus musculus; Table 5; MEF, ATPLite
Method: (§1) Several of the analogs derived from these changes were evaluated in secondary assays as they met the preliminary probe criteria for UPR-CHOP and UPR-XBP1 activity. Select compounds were assessed in a dose response manner for the ability to suppress proliferation in both the CHOP wild-type and CHOP knockout murine embryonic fibroblasts (−/− MEF KO CHOP)(Table 2).
(§2) It was determined whether ML291 and ML291 congeners would induce cell death (cytotoxicity as measured by ATPLite®, which measures production of ATP from living cells) in cells where these pathways are operant, but not activate them in the absence of the pathways.

−/− MEF KO CHOP = experiment: Proliferation / cytotoxicity (ATPLite) in MEF with CHOP KO; format: cell-based; conditions: Mus musculus; Table 5; MEF, ATPLite
Method: as §1, §2

[3] = system: CHOP (apoptotic) and XBP1 (adaptive) arms of the UPR; conditions: prior screen, non-selective hits; cited from earlier work
chickens = conditions: grain from treated crops; cited from earlier work
[4] = Table 9, average of four runs, F12 HAMs, 10% hi-FBS, read-out: EC50 UPR CHOP Assay
[5] = Table 9, average of four runs, F12 HAMs, 10% hi-FBS, read-out: EC50 UPR XBP1 Assay
[6] = Cricetulus griseus, read-out: CHOP EC50

CC1CCN(S(=O)(=O)c2ccc(NC(=O)c3ccc([N+](=O)[O-])o3)cc2)CC1 [Analog 1]
EC50 [1, 4]: 0.76 µM | EC50 [2, 5]: > 80 µM

O=C(Nc1ccc(S(=O)(=O)N2CCC(F)CC2)cc1)c1ccc([N+](=O)[O-])o1 [Analog 3]
EC50 [1, 4]: 0.43 µM | EC50 [2, 5]: > 80 µM

CC(C)(C)C1CCN(S(=O)(=O)c2ccc(NC(=O)c3ccc([N+](=O)[O-])o3)cc2)CC1 [Analog 4]
EC50 [1, 4]: 0.65 µM | EC50 [2, 5]: > 80 µM

CC1(C)CCN(S(=O)(=O)c2ccc(NC(=O)c3ccc([N+](=O)[O-])o3)cc2)CC1 [Analog 5]
EC50 [1, 4]: 0.77 µM | EC50 [2, 5]: > 80 µM

O=C(Nc1ccc(S(=O)(=O)N2CCOCC2)cc1)c1ccc([N+](=O)[O-])o1 [Entry 1 (Table 1)]
CHOP potency / activity [1]: low micromolar | selectivity (XBP1 over CHOP) [1]: 35 fold | EC50 [1, 6]: 2.02 µM | EC50 ([2]; listed as SID104222717, read-out: XBP1 EC50): > 71 µM | EC50 ([2]; read-out: XBP1 EC50): 70 to 80 µM

O=C(Nc1ccc(S(=O)(=O)N2CCOCC2)cc1)c1ccc([N+](=O)[O-])s1 [Entry 2 (Table 3)]
loss in CHOP potency versus 5-nitro-2-furan parent [1]: 6 fold

O=C(Nc1ccc(S(=O)(=O)N2CCCCC2)cc1)c1ccc([N+](=O)[O-])o1 [Entry 8 (Table 1), N-(4-((piperidin-1-yl)sulfonyl)phenyl)-5-nitrofuran-2-carboxamide]
IC50 (MEF with wild-type CHOP): 7.84 ± 1.2 µM | IC50 (−/− MEF KO CHOP): > 20 µM

O=C(Nc1ccc(S(=O)(=O)N2CCC(F)CC2)cc1)c1ccc([N+](=O)[O-])o1 [Entry 10 (Table 1), N-(4-((4-fluoropiperidin-1-yl)sulfonyl)phenyl)-5-nitrofuran-2-carboxamide]
IC50 (MEF with wild-type CHOP): 17.5 ± 2.69 µM | IC50 (−/− MEF KO CHOP): > 20 µM

CC1CCN(S(=O)(=O)c2ccc(NC(=O)c3ccc([N+](=O)[O-])o3)cc2)CC1 [Entry 12 (Table 1), N-(4-((4-methylpiperidin-1-yl)sulfonyl)phenyl)-5-nitrofuran-2-carboxamide]
IC50 (MEF with wild-type CHOP): 4.57 ± 1.24 µM | IC50 (−/− MEF KO CHOP): 16.3 ± 0.99 µM

CC1(C)CCN(S(=O)(=O)c2ccc(NC(=O)c3ccc([N+](=O)[O-])o3)cc2)CC1 [Entry 13 (Table 1), N-(4-((4,4-dimethylpiperidin-1-yl)sulfonyl)phenyl)-5-nitrofuran-2-carboxamide]
EC50 [1, 6]: 0.5 µM | XBP1 liability [2]: no discernable XBP1 liability | IC50 (MEF with wild-type CHOP): 3.02 ± 0.6 µM | IC50 (−/− MEF KO CHOP): 9.17 ± 3.34 µM

CC(C)(C)C1CCN(S(=O)(=O)c2ccc(NC(=O)c3ccc([N+](=O)[O-])o3)cc2)CC1 [Entry 14 (Table 1), N-(4-((4-tert-butylpiperidin-1-yl)sulfonyl)phenyl)-5-nitrofuran-2-carboxamide]
IC50 (MEF with wild-type CHOP): 1.36 ± 0.54 µM | IC50 (−/− MEF KO CHOP): 2.05 ± 0.29 µM

CN(C)C(=S)SSC(=S)N(C)C [NSC-1771]
induction of the UPR arms [3]: potently induce both the CHOP (apoptotic) and XBP1 (adaptive) arms of the UPR | toxicity in chickens (chickens): cause dyschondoplasia in the offspring of chickens

O=C(Nc1nc2c(F)cc(F)cc2s1)c1ccccn1 [SID 104222735]
CHOP potency / activity [1]: low micromolar | EC50 ([2]; read-out: XBP1 EC50): 70 to 80 µM

CCN(CC)C(=S)SSC(=S)N(CC)CC [disulfiram, bis(diethylthiocarbamoyl)disulfide]
induction of the UPR arms [3]: potently induce both the CHOP (apoptotic) and XBP1 (adaptive) arms of the UPR
